According to patent US10266510B2, “Antimicrobial and cytotoxic compounds and methods for treating cancer, a bacterial infection, and/or a fungal infection” (King Abdulaziz University, priority 2017, dated 2019):
Values after ≈ are worked out from the molar mass of the structure shown.

Tests used:
Type in all cases: cell-based
[1] = test system: HePG 2 (human hepatocellular cancer cell line); test: Tumor cell growth assay (sulforhodamine B), HePG 2; conditions: for Remarks (% at 100 ppm): 48 h; for Inhibitory effect on in vitro growth (in words): 48 h exposure
Excerpt: Reagents: Fetal bovine serum (FBS) and L-glutamine were purchased from Gibco Invitrogen Co. (Scotland, UK). RPMI-1640 medium was from Cambrex (New Jersey, USA). Dimethyl sulfoxide (DMSO), doxorubicin, penicillin, streptomycin and sulforhodamine B (SRB) were from Sigma Chemical Co. (Saint Louis, USA).
Cell cultures: Three human tumor cell lines, HCT116 (colon cell line), HePG 2 (human hepatocellular carcinoma cell line), and MCF7 (human breast adenocarcinoma) were used. In vitro bioassay on human tumor cell lines were conducted and determined by the Bioassay-Cell Culture Laboratory, National Research Centre, El-Tahrir St., Dokki, Cairo 12622, Egypt. They grew as a monolayer and are routinely maintained in RPMI-1640 medium supplemented with 5% heat-inactivated FBS, 2 mM glutamine and antibiotics (penicillin 100 U/mL, streptomycin 100 μg/mL), at 37° C. in a humidified atmosphere containing 5% CO2. Exponentially growing cells were obtained by plating 1.5×10^5 cells/mL for MCF-7 and HCT116 and 0.75×10^4 cells/mL for HePG2, followed by 24 h of incubation. The effect of the vehicle solvent (DMSO) on the growth of these cell lines was evaluated in all experiments by exposing untreated control cells to the maximum concentration (0.5%) of DMSO used in each assay.
Tumor cell growth assay: The effect on the in vitro growth of human tumor cell lines was evaluated according to the procedure adopted by the National Cancer Institute (NCI, USA) in the ‘In vitro Anticancer Drug Discovery Screen’ that uses the protein-binding dye sulforhodamine B to assess cell growth. Briefly, cells growing in 96-well plates were then exposed for 48 h to five serial concentrations of each compound, starting from a maximum concentration of 78 μM (P. Skehan, R. Storeng, D. Scudiero, A. Monks, J. McMahon, D. Vistica, J. T. Warren, H. Bokesch, S. Kenney, M. R. Boyd, J. Natl. Cancer Inst., 82, 1107 (1990), incorporated herein by reference in its entirety). Following this exposure period adherent cells were fixed, washed, and stained. The bound stain was solubilized and the absorbance was measured at 492 nm in a plate reader (Bio-Tek Instruments Inc., Power wave XS, Wincoski, USA). For each test compound and cell line, a dose-response curve was obtained and the growth inhibition of 50% (GI50), corresponding to the concentration of the compounds that inhibited 50% of the net cell growth, was calculated as described elsewhere (A. Monks, D. Scudiero, P. Skehan, R. Shoemaker, K. Paull, D. Vistica, C. Hose, J. Langley, P. Cronise, A. Vaigro-Wolff, M. Gray-Goodrich, H. Campbell, J. Mayo, M. J. Boyd, Natl. Cancer Inst., 83, 757 (1991), incorporated herein by reference in its entirety). Doxorubicin was used as a positive control and tested in the same manner.

[2] = test system: Aspergillus niger NRRL 2766; test: Well diffusion agar method, inhibition zone; conditions: for zone of inhibition at 50 µg/mL / Antifungal effect (in words): Aspergillus niger; for zone of inhibition at 50 µg/mL: NRRL2766; for Antifungal effect (in words): in comparison with Neomycin
Excerpt: (§1) The ability to inhibit the growth of Gram-positive and Gram-negative bacteria, yeasts and filamentous fungi was observed using an overlay method (S. R. Connell, D. M. Tracz, K. H. Nierhaus, D. E. Taylor, Antimicrob. Agents Chemother. 47, 3675 (2003), incorporated herein by reference in its entirety).
(§2) The common pathogenic and food spoilage microorganisms were selected for their relevance in bakery products and other food: the gram-positive bacteria: Bacillus subtilits NRRL-B-4219, Staphylococcus aureus ATCC 6538, Enterococcus faecalis ATCC 19433; the gram negative bacteria: Escherichia coli ATCC 25922, Pseudomonas aeruginosa ATCC 9027, Proteus sp.; yeasts, such as Candida albicans ATCC 10231; and fungi: Aspergillus niger NRRL 2766 (equivalent to ATCC 16888), and Aspergillus flavus ATCC 16883. The bacteria were slanted on nutrient agar (Merck, Darmstadt, Germany), yeast was slanted and mentioned on Sabaroud's agar medium (Lab M., Bury, Lancashire, UK) and the fungi was slanted and mentioned on the potato Dextrose Agar medium (Lab M Limited, Bury, Lancashire, UK). Mueller-Hinton agar (Lab M., Bury, Lancashire, UK) following the manufacturer's instructions was used for the assay.
(§3) All compounds were dissolved in dimethyl sulfoxide (RFCL Limited, New Delhi, India) at 50 μg/mL concentration as shown in Table 4 in comparison with different standard antibiotics. Antibiotic discs of Streptomycin (S) (10 μg), Oxytetracycline (T) (30 μg), and Tetracyciline (TE) (30 μg) were used as positive controls for bacteria. Neomycin (N) (30 μg), was used for fungi.
(§4) The antibacterial screening was performed with the well diffusion agar method (S. T. Williams, M. Goodfellow, E. M. H. Wellington, J. C. Vickers, G. Alderson, P. H. A. Sneath, S. M. J. Sackins, A. M. Mortimer, J. Gen. Microbiol. 129, 1815(1983); and B. Bonev, J. Hooper, J. Parisot, J. Antimicrob. Chemother., 61, 1295(2008), each incorporated herein by reference in their entirety). The organisms were streaked in radial patterns on the agar plates. Plates were incubated under aerobic conditions at 37° C. and 28° C. for 24 h and 48 h for bacteria and fungi, respectively. All prepared solutions were treated under the same conditions under the same incubated plates. All tests were performed in triplicate. Plates were examined for evidence of antimicrobial activities, represented by a zone of inhibition of the microorganism's growth around the holes, and diameters of clear zones were expressed in millimeters (R. Cruickshank, J. P. Duguid, B. P. Marmion, R. H. A. Swain, The practice of medicinal microbiology. In Medical Microbiology, 12th ed.; Churchill Livingstone: Edinburgh, UK, Volume 11, pp. 196-202 (1975), incorporated herein by reference in its entirety).

[3] = test system: Bacillus subtilits NRRL-B-4219; test: Well diffusion agar method, inhibition zone; conditions: compound at 50 μg/mL in DMSO, 37° C., 24 h; for zone of inhibition at 50 µg/mL: Bacillus, NRRLB4219
Excerpt: as §1, §2, §3, §4

[4] = test system: Candida albicans ATCC 10231; test: Well diffusion agar method, inhibition zone; conditions: compound at 50 μg/mL in DMSO, 28° C., 48 h; for zone of inhibition at 50 µg/mL: Candida albicans, ATCC10231
Excerpt: as §1, §2, §3, §4

Proteus sp. = test: Well diffusion agar method, inhibition zone; conditions: compound at 50 μg/mL in DMSO; 37° C., 24 h
Excerpt: as §1, §2, §3, §4

[5] = test system: Staphylococcus aureus ATCC 6538; test: Well diffusion agar method, inhibition zone; conditions: compound at 50 μg/mL in DMSO, 37° C., 24 h; for zone of inhibition at 50 µg/mL: Staphylococcus aureus, ATCC6538, read-out: Inhibition zone, S. aureus
Excerpt: as §1, §2, §3, §4

[6] = compound at 50 μg/mL in DMSO, 28° C., 48 h

Molecule	Remarks (% at 100 ppm) [1] [% at 100 ppm]	zone of inhibition at 50 µg/mL [2, 6] [mm]	zone of inhibition at 50 µg/mL [3] [mm]	zone of inhibition at 50 µg/mL [4] [mm]	zone of inhibition at 50 µg/mL (Proteus sp.) [mm]	zone of inhibition at 50 µg/mL [5] [mm]	Inhibitory effect on in vitro growth (in words) [1]	LC50 (concentration killing 50% of cells) ([1]; Homo sapiens, HepG2, death of 50% of cells in 48 hrs) [µg/mL]	LC90 ([1]; death of 90% of cells in 48 hrs) [µg/mL]	Antifungal effect (in words) [2]	Inhibition zone, A. niger [2, 6] [mm]	Inhibition zone, B. subtilits [3] [mm]	Inhibition zone, C. albicans [4] [mm]	Inhibition zone, Proteus sp. (Proteus sp.) [mm]	Inhibition zone, S. aureus [5] [mm]
CCOC1Oc2ccccc2C(=O)C1=NNc1ccccc1OC (stereo not drawn) [Compound 6b, 2-ethoxy-3-(2-(2-methoxyphenyl)hydrazono)chroman-4-one]	56.1	0	16	0	0	13	–	–	–	–	–	–	–	–	–
CCOC1Oc2ccccc2C(=O)C1=NNc1ccc(Cl)cc1 (stereo not drawn) [Compound 6c, 3-[(4-Chlorophenyl)hydrazono]-2-ethoxychroman-4-one]	94.2	18	32	20	26	30	highest inhibitory effect	39	68.9 (≈ 208 µM)	more potent antifungal effect	–	–	–	–	–
Ethoxy-3-[(4-nitro-phenyl)-hydrazono]-chroman-one [Compound 6a]	45.3	–	–	–	–	–	highest inhibitory effect	–	–	more potent antifungal effect	22	32	24	27	28
